Here are results for one molecule from patent publication US20240247257A1, “SYSTEM AND METHODS FOR INSERTION AND EDITING OF LARGE NUCLEIC ACID FRAGMENTS” (WUHAN UNIVERSITY, priority 2021, published 2024).

Common to all, as to assay type: cell-based, human
Assay [1] has as its system RPE cells. Description: Cell cycle of RPE cells, propidium iodide staining, flow cytometry. As to the method:
(§1) FIG. 11. GRAND editing mediates precise large insertion in non-dividing cells. a, The proliferation of RPE cells at 6 h, 12 h, 24 h, 48 h after treated with 1 or 2.5 μM Palbociclib, or 100, 200, 400 ng/mL Nocodazole was determined by cell counting. b, The cell cycles of RPE cells were determined by propidium iodide staining. c, Detection of the nascent DNA synthesis in RPE cells by 5-ethynyl-2′-deoxyuridine (EdU) incorporation assay. The proportions of EdU-labeled positive cells were determined by flow cytometry. d, A 100 bp DNA fragment was inserted at EGFP (595-647) site in non-dividing RPE cells using GRAND editing. The accurate editing and imperfect events were quantified by deep sequencing. Mean±s.d. of n=3 independent biological replicates for a, b, d, and n=3-5 independent biological replicates for c.
(§2) To determine whether GRAND editing-mediated targeted insertion is cell cycle independent, we used small molecule drugs to arrest the cell cycle of human retinal pigment epithelium (RPE) cell line. Palbociclib, a Cdk4 and Cdk6 inhibitor, effectively arrests cells in G1 phase. […] Next, we conducted the GRAND editing on RPE cells with Palbociclib or Nocodazole treatment.

In assay [2] the test system is RPE cells. Description: Proliferation of RPE cells by cell counting. The note with it: 100-400 ng/ml. As to the method: as §1, §2
Assay [3] relates to RPE cells. Description: EdU incorporation assay of nascent DNA synthesis in RPE cells. As to the method: as §1, §2

As to `COC(=O)Nc1nc2ccc(C(=O)c3cccs3)cc2[nH]1` [Nocodazole], in the assay on RPE cells [1], the cell cycle arrest result was “arrest at G2 phase”. Besides, the “growth of RPE cells” value in the assay on RPE cells [2] was “fully inhibited”. In addition, the “global DNA replication (EdU incorporation)” value in the assay on RPE cells [3] (at 24-48 hours) is listed as “near fully inhibited replication”; with RPE cells [3] (at 12 hours) it was “significantly suppressed global DNA replication”.
